For test [1], the system named is P. aeruginosa biofilms (PA14 and five clinical CF isolates). The test is described as follows: Biofilm susceptibility test: 96-well biofilm, BacLight (Syto9/PI) staining, automated CLSM, PHLIP biovolume analysis. It counts as cell-based, Pseudomonas aeruginosa. The method, then: The evening before the inoculation of the 96-well microtitre plates, inoculate bacteria from a single colony into 2 ml of LB medium in a tube and incubate the preculture in an orbital shaker (180 r.p.m.) at 37° C. overnight (˜16 h). The next morning, prepare a subculture from the overnight culture by diluting it with fresh LB medium to an OD600 of 0.02. The total volume of the inoculated medium depends on the number of replicates and the number of antibiotics or antibiotic dilutions to be tested for this isolate. II. Biofilm Growth Take off the lid of the designated number of sterile half-area μClear microtitre plates and use 100 μl per well of the diluted overnight culture(s) (Step 2) to inoculate the wells (testing different antibiotics, antibiotic dilutions and a minimum of two replicates for each combination). Thereafter, seal the plate(s) with an air-permeable cover foil (no lid) and incubate for 24 h at 37° C. in an incubator with humid atmosphere. III. Antibiotic-Treatment of the Biofilms After 24 h of growth, the biofilms within the wells of the microtitre plate were exposed to antibiotics. Stock solutions of the chosen antibiotics in LB medium were prepared and two-fold serial dilutions in fresh LB-medium were performed. […] To add the antibiotic dilutions to the microtitre plates, the plates were taken out of the incubator into a safety cabinet. The cover foil was removed and 40 μl antibiotic solution to the appropriate well (different antibiotics/concentrations) were added except to the control well(s) where only LB is added. IV. Staining of the Biofilms Prepare staining solution as described above (see REAGENT SETUP). […] Cover the microtitre plate with a fresh air-permeable foil and return the plate to the incubator. Continue incubation for 24 h at 37° C. before imaging. Immediately before microscopy (after ˜48 h total incubation time), remove the microtitre plate with treated biofilms from the incubator. V. Microscopy Automated Run or Manual Run When using the automated confocal Opera system, two positions at the center of each well are chosen automatically to acquire z-stacks of the biofilms. […] Focal planes are acquired starting from the bottom of the plate (position 0) with an interplane distance (z-step size) of 3 μm (using a 40×/0.85 numerical-aperture (NA) air objective). Syto9 is excited with a 488-nm laser and detected with a 540/75 nm band-pass emission filter, whereas PI is excited at 561 nm and detected with a 600/40 nm band-pass emission filter. If a non-automated confocal microscope is used, choose adequate filter settings for Syto9 and PI. To enhance comparability, biofilm images should be recorded at the center of a well. In a manual process, due to time reasons image acquisition might be reduced to one stack per well if 2-3 replicates of the same sample are present within the plate. VI. Data Analysis Computer Calculation Save the image stacks as single .bmp image files (image files may require conversion, for example, with MATLAB software). Batch-process all images using a background subtraction tool (for example, the ‘Subtract Background’ command in ImageJ). Following background subtraction, use an Otsu-thresholding algorithm to obtain thresholded binary images (8-bit format). Reduce the appearance of planktonic bacteria and outlying pixels with a noise filter (such as the ‘Remove Outliers’ command in ImageJ). Steps 11-13 are exemplified in Supplementary FIG. 1. Reassemble the image stacks from the individual processed binary images for each position and channel with Auto PHLIP-ML software. Use the MATLAB-based tool PHLIP (without connected volume filtration) to calculate descriptive parameters of biofilms (including biovolume, substratum coverage, area-to-volume ratio, spatial spreading and 3D colocalization) from the integrated total of each individual slice of a thresholded z-stack.

Test [2] has as its system P. aeruginosa PA14 and five clinical strains. The experiment in a line: CFU determinations of whole well content (planktonic and biofilm bacteria). It is filed as cell-based, Pseudomonas aeruginosa.
The subject of test [3] is P. aeruginosa PA14 and five clinical CF isolates (planktonic). The test is described as follows: Planktonic MIC determination with the semi-automated Vitek2 system. As to conditions: for MIC: Pseudomonas aeruginosa, Vitek2.
Method: Clinical isolates were recovered from the respiratory tracts of chronically infected people with CF at the Hannover Medical School and differed according to morphology and resistance profile. The MICs were determined by the use of the semi-automated Vitek2 system (Biomerieux).
The subject of test [4] is mixed bacterial communities from sputum specimens of two cystic fibrosis patients. The test is described as follows: Multi species biofilm susceptibility test of sputum specimens. It counts as cell-based. The settings on record: one sputum sample; 1 mg ml−1.

Converted amounts (≈) assume the structure as drawn. Some results are limits rather than exact numbers.

As usually defined, the MIC is the lowest concentration found to suppress growth. A high value points to a less susceptible organism.

On to `CC(C)(O/N=C(\C(=O)N[C@@H]1C(=O)N2C(C(=O)[O-])=C(C[n+]3ccccc3)CS[C@H]12)c1csc(N)n1)C(=O)O` [ceftazidime], for which, in test [1] (isolate 5497), the biofilm response result is “✓ (Biofilms were categorized as responsive (✓) if a consistent increase in the fraction of red and yellow (colocalized) fluorescenct biovolume (reaching ~ 80% of the total biovolume) within a given antibiotic concentration range was detected.)”. Also, the “RY biovolume of the total biovolume” value in test [1] (strain 5497) was approximately 80%. For the same molecule, the CFU count in test [2] (strain 5497) is 10^6 cells per ml; in test [2] (strain PA14, without correlated imaging data) it was 10^6 cells per ml. For the same molecule, the MIC was 1 µg/mL (≈ 1.83 µM) in test [3] (isolate 5497, planktonic); 4 µg/mL (≈ 7.32 µM) in test [3] (isolate 5520, planktonic); 4 µg/mL (≈ 7.32 µM) in test [3] (isolate 5522, planktonic); 2 µg/mL (≈ 3.66 µM) in test [3] (isolate 5524, planktonic); not above 1 µg/mL in test [3] (isolate 5529, planktonic); not above 1 µg/mL in test [3] (isolate PA14, planktonic). For the same molecule, the MIC interpretation category entry is “S” in test [3] (isolate 5497, Vitek2); “S” in test [3] (isolate 5520, Vitek2); “S” in test [3] (isolate 5522, Vitek2); “S” in test [3] (isolate 5524, Vitek2); “S” in test [3] (isolate 5529, Vitek2); “S” in test [3] (isolate PA14, Vitek2).

With `CC(C)O` [isopropanol], the “fraction of green fluorescence in killed biofilm” value in test [1] (biofilms of three clinical isolates, killing control) is listed as 10-20%. Also, the “killing verified by CFU counts” value in test [2] (biofilms of three clinical isolates) is “efficiently killed”.

Regarding `C[C@@H](O)[C@H]1C(=O)N2C(C(=O)O)=C(S[C@@H]3CN[C@H](C(=O)N(C)C)C3)[C@H](C)[C@H]12` [meropenem], in test [1] (all strains), the “susceptibility under biofilm growth conditions” value is “resistance”. Also, in test [2] (strain 5529 at 128 μg ml−1), the CFU counts is ~10^6 cells per ml. Moreover, the MIC is not above 0.25 µg/mL in test [3] (isolate 5497, planktonic); 0.5 µg/mL (≈ 1.3 µM) in test [3] (isolate 5520, planktonic); 2 µg/mL (≈ 5.22 µM) in test [3] (isolate 5522, planktonic); not above 0.25 µg/mL in test [3] (isolate 5524, planktonic); 1 µg/mL (≈ 2.61 µM) in test [3] (isolate 5529, planktonic); not above 0.25 µg/mL in test [3] (isolate PA14, planktonic). For the same molecule, the MIC interpretation category result in test [3] (isolate 5497, Vitek2) is “S”; in test [3] (isolate 5520, Vitek2), “S”; in test [3] (isolate 5522, Vitek2) it was “S”; in test [3] (isolate 5524, Vitek2), “S”; in test [3] (isolate 5529, Vitek2), “S”; in test [3] (isolate PA14, Vitek2) it was “S”.

For the molecule `NC[C@H]1O[C@H](O[C@H]2[C@H](O)[C@@H](O[C@H]3O[C@H](CO)[C@@H](O)[C@H](N)[C@H]3O)[C@H](N)C[C@@H]2N)[C@H](N)C[C@@H]1O` [tobramycin], the biofilm response entry is “✓ (Biofilms were categorized as responsive (✓) if a consistent increase in the fraction of red and yellow (colocalized) fluorescenct biovolume (reaching ~ 80% of the total biovolume) within a given antibiotic concentration range was detected.)” in test [1] (isolate 5497); “✓ (Biofilms were categorized as responsive (✓) if a consistent increase in the fraction of red and yellow (colocalized) fluorescenct biovolume (reaching ~ 80% of the total biovolume) within a given antibiotic concentration range was detected.)” in test [1] (isolate 5520); “✓ (Biofilms were categorized as responsive (✓) if a consistent increase in the fraction of red and yellow (colocalized) fluorescenct biovolume (reaching ~ 80% of the total biovolume) within a given antibiotic concentration range was detected.)” in test [1] (isolate PA14). In test [1] (strain 5529 at 512 μg ml−1), the “fraction of the RY biovolume of the total biovolume” value was approximately 80%. The “fraction of the RY (red+yellow) biovolume of the total biovolume” value in test [1] (strains PA14, 5497 and 5520, increasing concentrations, 2-512 μg ml−1) is listed as approximately 80%. Also, the “change in CFUs” value in test [2] (strains 5522, 5524 and 5529, low antibiotic concentrations) is given as “minor decrease”. For the same molecule, the CFU counts in test [2] (strains PA14, 5497 and 5520, increasing concentrations) is given as ≤ 10^5 cells per ml. The MIC in test [3] (isolate 5497, planktonic) is not above 0.25 µg/mL; in test [3] (isolate 5520, planktonic), 1 µg/mL (≈ 2.14 µM); in test [3] (isolate 5522, planktonic), more than 32 µg/mL; in test [3] (isolate 5524, planktonic), 1 µg/mL (≈ 2.14 µM); in test [3] (isolate 5529, planktonic), more than 32 µg/mL; in test [3] (isolate PA14, planktonic) it was 1 µg/mL (≈ 2.14 µM). In addition, the MIC interpretation category result in test [3] (isolate 5497, Vitek2) is “S”; in test [3] (isolate 5520, Vitek2), “S”; in test [3] (isolate 5522, Vitek2), “R”; in test [3] (isolate 5524, Vitek2), “S”; in test [3] (isolate 5529, Vitek2), “R”; in test [3] (isolate PA14, Vitek2), “S”.

On to colistin, for which the “biofilm responsiveness” value in test [4] was “responsive”.

The values above are taken from patent publication US10179928B2, “Methods and tests for screening bacterial biofilms” (Helmholtz-Zentrum fuer Infektionsforschung GmbH, priority 2009, dated 2019).
